Patent US9149038B2, “4-amino-6-(heterocyclic)picolinates and 6-amino-2-(heterocyclic)pyrimidine-4-carboxylates and their use as herbicides” (Dow AgroSciences LLC, priority 2013, dated 2015)
Read-outs that look alike come from different tables or passages of the source.

Legend:
[1] = tested on: Key Broadleaf Weed and Crop Species; assay: Post-Emergent Test II: postemergent herbicidal activity, visual rating after 14 d (Table 7); format: in vivo; details: post-emergence, 336 h; for pest or weed control at 35 g/ha: 35 g ai/ha; for pest or weed control at 70 g/ha: 70 g ai/ha; for pest or weed control at 140 g/ha: 140 g ai/ha
Summary of the method: (§1)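 Post-emergence foliar spray, 187 L/ha, first/second true leaf stage plants in potting mix (pH 6.0-6.8). Rates: top rate and 2-fold serial dilutions to 1/16×. Solvent-blank controls. Readout: visual % kill at 14 d.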

[2] = tested on: Key Grass and Sedge Weeds as well as Grass Crops; assay: Post-Emergent Test II: postemergent herbicidal activity, visual rating after 14 d (Table 8); format: in vivo; details: post-emergence, 336 h; for pest or weed control at 35 g/ha: 35 g ai/ha; for pest or weed control at 70 g/ha: 70 g ai/ha; for pest or weed control at 140 g/ha: 140 g ai/ha
Summary of the method: as §1

[3] = lambsquarters (Chenopodium album), read-out: Visual Growth Reduction (%) 14 Days After Application CHEAL
[4] = oilseed rape, canola (Brassica napus), read-out: Visual Growth Reduction (%) 14 Days After Application BRSNN
[5] = redroot pigweed (Amaranthus retroflexus), read-out: Visual Growth Reduction (%) 14 Days After Application AMARE
[6] = sunflower (Helianthus annuus), read-out: Visual Growth Reduction (%) 14 Days After Application HELAN
[7] = velvetleaf (Abutilon theophrasti), read-out: Visual Growth Reduction (%) 14 Days After Application ABUTH
[8] = wild poinsettia (Euphorbia heterophylla), read-out: Visual Growth Reduction (%) 14 Days After Application EPHHL
[9] = barnyardgrass (Echinochloa crus-galli), read-out: Visual Growth Reduction (%) 14 Days After Application ECHCG
[10] = giant foxtail (Setaria faberi), read-out: Visual Growth Reduction (%) 14 Days After Application SETFA
[11] = maize, corn (Zea mays), read-out: Visual Growth Reduction (%) 14 Days After Application ZEAMX
[12] = rice (Oryza sativa), read-out: Visual Growth Reduction (%) 14 Days After Application ORYSA
[13] = wheat, spring (Triticum aestivum), read-out: Visual Growth Reduction (%) 14 Days After Application TRZAS
[14] = yellow nutsedge (Cyperus esculentus), read-out: Visual Growth Reduction (%) 14 Days After Application CYPES

Structure (SMILES)	pest or weed control at 35 g/ha [1, 3]	pest or weed control at 70 g/ha [1, 3]	pest or weed control at 140 g/ha [1, 3]	pest or weed control at 35 g/ha [1, 4]	pest or weed control at 70 g/ha [1, 4]	pest or weed control at 140 g/ha [1, 4]	pest or weed control at 35 g/ha [1, 5]	pest or weed control at 70 g/ha [1, 5]	pest or weed control at 140 g/ha [1, 5]	pest or weed control at 35 g/ha [1, 6]	pest or weed control at 70 g/ha [1, 6]	pest or weed control at 140 g/ha [1, 6]	pest or weed control at 35 g/ha [1, 7]	pest or weed control at 70 g/ha [1, 7]	pest or weed control at 140 g/ha [1, 7]	pest or weed control at 35 g/ha [1, 8]	pest or weed control at 70 g/ha [1, 8]	pest or weed control at 140 g/ha [1, 8]	pest or weed control at 35 g/ha [2, 9]	pest or weed control at 70 g/ha [2, 9]	other results
COC(=O)c1nc(-c2cc3c(cc2F)OCO3)c(F)c(N)c1Cl [Compound 16]	45 to 59%	60 to 74%	60 to 74%	30 to 44%	60 to 74%	85 to 94%	85 to 94%	85 to 94%	95 to 100%	85 to 94%	95 to 100%	95 to 100%	60 to 74%	60 to 74%	75 to 84%	95 to 100%	95 to 100%	95 to 100%	60 to 74%	60 to 74%	pest or weed control at 140 g/ha [2, 9]: 75 to 84%; pest or weed control at 35 g/ha [2, 10]: 60 to 74%; pest or weed control at 70 g/ha [2, 10]: 60 to 74%; pest or weed control at 140 g/ha [2, 10]: 60 to 74%; pest or weed control at 35 g/ha [2, 11]: 30 to 44%; pest or weed control at 70 g/ha [2, 11]: 45 to 59%; pest or weed control at 140 g/ha [2, 11]: 75 to 84%; pest or weed control at 35 g/ha [2, 12]: 0 to 29%; pest or weed control at 70 g/ha [2, 12]: 0 to 29%; pest or weed control at 140 g/ha [2, 12]: 0 to 29%; pest or weed control at 35 g/ha [2, 13]: 0 to 29%; pest or weed control at 70 g/ha [2, 13]: 30 to 44%; pest or weed control at 140 g/ha [2, 13]: 45 to 59%; pest or weed control at 35 g/ha [2, 14]: 0 to 29%; pest or weed control at 70 g/ha [2, 14]: 45 to 59%; pest or weed control at 140 g/ha [2, 14]: 45 to 59%
COC(=O)c1nc(-c2ccc3c(c2)OC(C)(C)O3)nc(N)c1OC [Compound 67]	0 to 29%	0 to 29%	0 to 29%	0 to 29%	0 to 29%	0 to 29%	0 to 29%	0 to 29%	0 to 29%	0 to 29%	0 to 29%	0 to 29%	0 to 29%	0 to 29%	0 to 29%	60 to 74%	95 to 100%	95 to 100%	0 to 29%	45 to 59%	pest or weed control at 140 g/ha [2, 9]: 75 to 84%; pest or weed control at 35 g/ha [2, 10]: 0 to 29%; pest or weed control at 70 g/ha [2, 10]: 45 to 59%; pest or weed control at 140 g/ha [2, 10]: 60 to 74%; pest or weed control at 35 g/ha [2, 11]: 0 to 29%; pest or weed control at 70 g/ha [2, 11]: 60 to 74%; pest or weed control at 140 g/ha [2, 11]: 60 to 74%; pest or weed control at 35 g/ha [2, 12]: 0 to 29%; pest or weed control at 70 g/ha [2, 12]: 0 to 29%; pest or weed control at 140 g/ha [2, 12]: 0 to 29%; pest or weed control at 35 g/ha [2, 13]: 0 to 29%; pest or weed control at 70 g/ha [2, 13]: 0 to 29%; pest or weed control at 140 g/ha [2, 13]: 0 to 29%; pest or weed control at 35 g/ha [2, 14]: 0 to 29%; pest or weed control at 70 g/ha [2, 14]: 0 to 29%; pest or weed control at 140 g/ha [2, 14]: 45 to 59%
Nc1cc(-c2ccc3c(c2F)OC(F)(F)O3)nc(C(=O)O)c1Cl [Compound 41]	85 to 94%	85 to 94%	85 to 94%	60 to 74%	75 to 84%	75 to 84%	95 to 100%	95 to 100%	95 to 100%	0 to 29%	60 to 74%	60 to 74%	60 to 74%	75 to 84%	75 to 84%	95 to 100%	95 to 100%	95 to 100%	75 to 84%	85 to 94%	pest or weed control at 140 g/ha [2, 9]: 95 to 100%; pest or weed control at 35 g/ha [2, 10]: 75 to 84%; pest or weed control at 70 g/ha [2, 10]: 85 to 94%; pest or weed control at 140 g/ha [2, 10]: 85 to 94%; pest or weed control at 35 g/ha [2, 11]: 60 to 74%; pest or weed control at 70 g/ha [2, 11]: 75 to 84%; pest or weed control at 140 g/ha [2, 11]: 75 to 84%; pest or weed control at 35 g/ha [2, 12]: 0 to 29%; pest or weed control at 70 g/ha [2, 12]: 0 to 29%; pest or weed control at 140 g/ha [2, 12]: 0 to 29%; pest or weed control at 35 g/ha [2, 13]: 30 to 44%; pest or weed control at 70 g/ha [2, 13]: 30 to 44%; pest or weed control at 140 g/ha [2, 13]: 45 to 59%; pest or weed control at 35 g/ha [2, 14]: 0 to 29%; pest or weed control at 70 g/ha [2, 14]: 0 to 29%; pest or weed control at 140 g/ha [2, 14]: 0 to 29%
